Test: recombinant barcode read abundance after kanamycin selection (control-corrected) (log10(CPM+1)); higher = more efficient recombination; sequences stand for … in AGTGCAGAGAAAATCGGCCAGTTTTCTCTGCCTGCAGTCCGCATGCCGT…ATTTATGCAGCGGACTGCCTTTCTCCCAAAGTGATAAACCGGACAGTATCATGGACCGGTTTTCCCGGTAATCCGTATTTGCAAGGTTGGTTTCACT; site = the 11-nt target
Protocol: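 Same pooled E. coli target screen (IS621 bridge recombinase, kanamycin selection, control-corrected CPM, mean of 2 biological replicates). Here the two core-binding nucleotides of the LTG and RTG of the bridge RNA target-binding loop are mutated. Target and donor CT cores are held constant, and the other 9 guide positions match the target. The target is read from the library oligo sequence. Molecule = full bridge RNA written as DNA: nt 1-80 from the library oligo, rest WT scaffold.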

Sequence | recombinant barcode read abundance (log10)
AGGCCTCCGTGGGTTCTAACCTGTTGCCTCG [AGGCCTCCTAG_LTGcore_CG_RTGcore_CG] (site AGGCCTCCTAG) (LTG core: CG, RTG core: CG) | 0.0742
AGGCCTCCTTGGGTTCTAACCTGTTGCCTTA [AGGCCTCCTAG_LTGcore_CT_RTGcore_TA] (site AGGCCTCCTAG) (LTG core: CT, RTG core: TA) | 0.635
AGGCCTCGCTGGGTTCTAACCTGTTGCCTAG [AGGCCTCCTAG_LTGcore_GC_RTGcore_CT] (site AGGCCTCCTAG) (LTG core: GC, RTG core: CT) | 0.224
AGGCCTCGGTGGGTTCTAACCTGTTGCCTAG [AGGCCTCCTAG_LTGcore_GG_RTGcore_CT] (site AGGCCTCCTAG) (LTG core: GG, RTG core: CT) | 1.04
AGGCCTCTATGGGTTCTAACCTGTTGCCTTA [AGGCCTCCTAG_LTGcore_TA_RTGcore_TA] (site AGGCCTCCTAG) (LTG core: TA, RTG core: TA) | 0.0149
AGGCCTCTGTGGGTTCTAACCTGTTGCCTCA [AGGCCTCCTAG_LTGcore_TG_RTGcore_TG] (site AGGCCTCCTAG) (LTG core: TG, RTG core: TG) | 0.186
AGGCGGGAATGGGTTCTAACCTGTTGCGGTT [AGGCGGGCTCC_LTGcore_AA_RTGcore_AA] (site AGGCGGGCTCC) (LTG core: AA, RTG core: AA) | 0.154
AGGCGGGCCTGGGTTCTAACCTGTTGCGGAG [AGGCGGGCTCC_LTGcore_CC_RTGcore_CT] (site AGGCGGGCTCC) (LTG core: CC, RTG core: CT) | 1.48
AGGCGGGCGTGGGTTCTAACCTGTTGCGGAG [AGGCGGGCTCC_LTGcore_CG_RTGcore_CT] (site AGGCGGGCTCC) (LTG core: CG, RTG core: CT) | 2.17
AGGCGGGCTTGGGTTCTAACCTGTTGCGGAG [AGGCGGGCTCC_LTGcore_CT_RTGcore_CT] (site AGGCGGGCTCC) (LTG core: CT, RTG core: CT) | 1.66
AGGCGGGGCTGGGTTCTAACCTGTTGCGGGC [AGGCGGGCTCC_LTGcore_GC_RTGcore_GC] (site AGGCGGGCTCC) (LTG core: GC, RTG core: GC) | 0.0608
AGGCGGGTGTGGGTTCTAACCTGTTGCGGAG [AGGCGGGCTCC_LTGcore_TG_RTGcore_CT] (site AGGCGGGCTCC) (LTG core: TG, RTG core: CT) | 0.159
AGGCGGTAGTGGGTTCTAACCTGTTGCTTAG [AGGCGGTCTAA_LTGcore_AG_RTGcore_CT] (site AGGCGGTCTAA) (LTG core: AG, RTG core: CT) | 0.187
AGGCGGTAGTGGGTTCTAACCTGTTGCTTCT [AGGCGGTCTAA_LTGcore_AG_RTGcore_AG] (site AGGCGGTCTAA) (LTG core: AG, RTG core: AG) | 0.197
AGGCGGTCTTGGGTTCTAACCTGTTGCTTAG [AGGCGGTCTAA_LTGcore_CT_RTGcore_CT] (site AGGCGGTCTAA) (LTG core: CT, RTG core: CT) | 2.29
AGGCGGTCTTGGGTTCTAACCTGTTGCTTAT [AGGCGGTCTAA_LTGcore_CT_RTGcore_AT] (site AGGCGGTCTAA) (LTG core: CT, RTG core: AT) | 0.144
AGGCGGTCTTGGGTTCTAACCTGTTGCTTCT [AGGCGGTCTAA_LTGcore_CT_RTGcore_AG] (site AGGCGGTCTAA) (LTG core: CT, RTG core: AG) | 0.284
AGGCGGTCTTGGGTTCTAACCTGTTGCTTTC [AGGCGGTCTAA_LTGcore_CT_RTGcore_GA] (site AGGCGGTCTAA) (LTG core: CT, RTG core: GA) | 0.389
AGGCGGTCTTGGGTTCTAACCTGTTGCTTTG [AGGCGGTCTAA_LTGcore_CT_RTGcore_CA] (site AGGCGGTCTAA) (LTG core: CT, RTG core: CA) | 0.0581
AGGCGGTGCTGGGTTCTAACCTGTTGCTTGC [AGGCGGTCTAA_LTGcore_GC_RTGcore_GC] (site AGGCGGTCTAA) (LTG core: GC, RTG core: GC) | 0.104
AGGCGGTGGTGGGTTCTAACCTGTTGCTTAG [AGGCGGTCTAA_LTGcore_GG_RTGcore_CT] (site AGGCGGTCTAA) (LTG core: GG, RTG core: CT) | 0.074
AGGCGGTGGTGGGTTCTAACCTGTTGCTTCC [AGGCGGTCTAA_LTGcore_GG_RTGcore_GG] (site AGGCGGTCTAA) (LTG core: GG, RTG core: GG) | 0.0144

Sequence | recombinant barcode read abundance (log10)
AGGCGGTTGTGGGTTCTAACCTGTTGCTTCA [AGGCGGTCTAA_LTGcore_TG_RTGcore_TG] (site AGGCGGTCTAA) (LTG core: TG, RTG core: TG) | 0.0951
AGTCTTAAATGGGTTCTAACCTGTTGCCATT [AGTCTTACTTG_LTGcore_AA_RTGcore_AA] (site AGTCTTACTTG) (LTG core: AA, RTG core: AA) | 0.0761
AGTCTTACATGGGTTCTAACCTGTTGCCATG [AGTCTTACTTG_LTGcore_CA_RTGcore_CA] (site AGTCTTACTTG) (LTG core: CA, RTG core: CA) | 0.21
AGTCTTACGTGGGTTCTAACCTGTTGCCACG [AGTCTTACTTG_LTGcore_CG_RTGcore_CG] (site AGTCTTACTTG) (LTG core: CG, RTG core: CG) | 0.213
AGTCTTACTTGGGTTCTAACCTGTTGCCAAG [AGTCTTACTTG_LTGcore_CT_RTGcore_CT] (site AGTCTTACTTG) (LTG core: CT, RTG core: CT) | 0.0171
AGTCTTACTTGGGTTCTAACCTGTTGCCAAT [AGTCTTACTTG_LTGcore_CT_RTGcore_AT] (site AGTCTTACTTG) (LTG core: CT, RTG core: AT) | 0.144
AGTCTTACTTGGGTTCTAACCTGTTGCCACC [AGTCTTACTTG_LTGcore_CT_RTGcore_GG] (site AGTCTTACTTG) (LTG core: CT, RTG core: GG) | 0.0199
AGTCTTACTTGGGTTCTAACCTGTTGCCAGA [AGTCTTACTTG_LTGcore_CT_RTGcore_TC] (site AGTCTTACTTG) (LTG core: CT, RTG core: TC) | 0.0445
AGTCTTACTTGGGTTCTAACCTGTTGCCATA [AGTCTTACTTG_LTGcore_CT_RTGcore_TA] (site AGTCTTACTTG) (LTG core: CT, RTG core: TA) | 0.136
AGTCTTACTTGGGTTCTAACCTGTTGCCATC [AGTCTTACTTG_LTGcore_CT_RTGcore_GA] (site AGTCTTACTTG) (LTG core: CT, RTG core: GA) | 0.155
AGTCTTACTTGGGTTCTAACCTGTTGCCATT [AGTCTTACTTG_LTGcore_CT_RTGcore_AA] (site AGTCTTACTTG) (LTG core: CT, RTG core: AA) | 0.196
AGTCTTAGCTGGGTTCTAACCTGTTGCCAGC [AGTCTTACTTG_LTGcore_GC_RTGcore_GC] (site AGTCTTACTTG) (LTG core: GC, RTG core: GC) | 0.197
AGTCTTAGGTGGGTTCTAACCTGTTGCCACC [AGTCTTACTTG_LTGcore_GG_RTGcore_GG] (site AGTCTTACTTG) (LTG core: GG, RTG core: GG) | 0.274
AGTCTTATATGGGTTCTAACCTGTTGCCATA [AGTCTTACTTG_LTGcore_TA_RTGcore_TA] (site AGTCTTACTTG) (LTG core: TA, RTG core: TA) | 0.153
AGTCTTATTTGGGTTCTAACCTGTTGCCAAG [AGTCTTACTTG_LTGcore_TT_RTGcore_CT] (site AGTCTTACTTG) (LTG core: TT, RTG core: CT) | 0.137
ATGCTTTAGTGGGTTCTAACCTGTTGCCTAG [ATGCTTTCTAG_LTGcore_AG_RTGcore_CT] (site ATGCTTTCTAG) (LTG core: AG, RTG core: CT) | 0.0782
ATGCTTTCCTGGGTTCTAACCTGTTGCCTAG [ATGCTTTCTAG_LTGcore_CC_RTGcore_CT] (site ATGCTTTCTAG) (LTG core: CC, RTG core: CT) | 0.0734
ATGCTTTCCTGGGTTCTAACCTGTTGCCTGG [ATGCTTTCTAG_LTGcore_CC_RTGcore_CC] (site ATGCTTTCTAG) (LTG core: CC, RTG core: CC) | 0.0978
ATGCTTTCGTGGGTTCTAACCTGTTGCCTAG [ATGCTTTCTAG_LTGcore_CG_RTGcore_CT] (site ATGCTTTCTAG) (LTG core: CG, RTG core: CT) | 0.0216
ATGCTTTCTTGGGTTCTAACCTGTTGCCTAC [ATGCTTTCTAG_LTGcore_CT_RTGcore_GT] (site ATGCTTTCTAG) (LTG core: CT, RTG core: GT) | 0.191
ATGCTTTCTTGGGTTCTAACCTGTTGCCTTG [ATGCTTTCTAG_LTGcore_CT_RTGcore_CA] (site ATGCTTTCTAG) (LTG core: CT, RTG core: CA) | 0.0598
ATGCTTTGATGGGTTCTAACCTGTTGCCTAG [ATGCTTTCTAG_LTGcore_GA_RTGcore_CT] (site ATGCTTTCTAG) (LTG core: GA, RTG core: CT) | 0.229
